Source: patent US20260035367A1 (Celgene Corporation, priority 2021, published 2026)
Like-named read-outs stand apart in the source and are kept apart here.

Columns and labels:
[1] = tested on: IL-2 secretion by human effector memory T cells (TEM); assay: Effector memory T cells IL-2 release assay (CD3/CD28 stimulation, HTRF IL-2 detection); format: cell-based; settings: Homo sapiens, T-cell, 24 h
Method in brief: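 Human effector memory T cells from healthy-donor buffy coats were exposed in triplicate to ten semi-log doses of compound in 0.1% DMSO. The cells were stimulated and incubated 24 h at 37 °C. Secreted IL-2 in the supernatant was measured by HTRF.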

[2] = biological target: T1, Recombinant human PKC-theta (His-tagged 362-706) (Homo sapiens, UniProt Q04759); assay: PKC-theta inhibition assay (HTRF KinEASE kit); format: biochemical; settings: ATP 6.5 μM, STK substrate 525 nM
T1 construct: Recombinant human PKC-theta (His-tagged 362-706); His
T1 sequence (Q04759 362-706): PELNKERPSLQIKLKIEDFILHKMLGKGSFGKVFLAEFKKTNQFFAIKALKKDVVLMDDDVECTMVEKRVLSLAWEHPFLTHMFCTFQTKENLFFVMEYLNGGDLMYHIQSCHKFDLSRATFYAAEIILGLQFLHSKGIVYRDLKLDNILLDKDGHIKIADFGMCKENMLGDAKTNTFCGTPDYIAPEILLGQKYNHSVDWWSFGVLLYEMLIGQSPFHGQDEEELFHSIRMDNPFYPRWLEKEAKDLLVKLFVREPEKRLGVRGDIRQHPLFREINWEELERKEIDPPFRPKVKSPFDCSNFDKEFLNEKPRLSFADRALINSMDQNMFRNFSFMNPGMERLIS
Method in brief: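 IC50 values were from 4-parameter logistic fits of percent inhibition, based on acceptor/donor HTRF ratios over 10 semi-log compound doses. Kinase reactions, started with substrate plus ATP, ran 30 min at 25 °C in buffer supplemented with 10 mM MgCl2, 1 mM DTT and 0.1% Tween 20; detection lasted 2 h.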

[3] = biological target: T2, Recombinant human PKC-delta (His-tagged 345-676) (Homo sapiens, UniProt Q05655); assay: PKC-delta inhibition assay (HTRF KinEASE kit); format: biochemical; settings: ratio, PKC-theta vs PKC-delta HTRF; for PKC-theta/PKC-delta selectivity (binned): binned A to G
T2 construct: PKC-delta (His-tagged 345-676); His
T2 sequence (Q05655 345-676): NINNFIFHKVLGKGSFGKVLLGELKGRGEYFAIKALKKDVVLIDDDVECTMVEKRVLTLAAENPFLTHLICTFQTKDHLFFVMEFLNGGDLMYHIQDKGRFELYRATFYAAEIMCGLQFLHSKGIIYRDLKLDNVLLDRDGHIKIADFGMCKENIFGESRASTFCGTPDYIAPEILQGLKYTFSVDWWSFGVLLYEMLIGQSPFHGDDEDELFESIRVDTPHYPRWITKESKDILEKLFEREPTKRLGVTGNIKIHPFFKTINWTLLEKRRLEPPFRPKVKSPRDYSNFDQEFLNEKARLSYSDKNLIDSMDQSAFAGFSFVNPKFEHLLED
Method: PKC-theta and PKC-delta biochemical activities were measured using the PKC-theta HTRF KinEASEkit kit, according to manufacturer's instructions (Cisbio, catalogue number 61ST1PEJ). Briefly, the kinase buffer component of the kit was supplemented with 10 mM MgCl2, 1 mM DTT and 0.1% Tween 20. […] The streptavidin_XL665 and STK antibody-cryptate detection reagents were mixed according to the manufacturer's instructions. Test compounds were diluted in DMSO in a series of 10 semi-log step doses; 10 nL of each compound dose were dispensed in 384 well plates. […] The reaction was started by addition of the substrate and ATP and incubated at 25° C. for 30 minutes or 20 minutes for the PKC-theta and PKC-delta assays, respectively. The detection reagents were added, and the plate was incubated in the dark for 2 hours. […] The ratio of acceptor and donor emission signals was calculated for each well.

[4] = binned A to G, read-out: PKC-theta IL2 pIC50 (binned) (converted)
[5] = read-out: PKC-theta IL2 pIC50 (converted)
[6] = binned A to H, read-out: PKC-theta HTRF pIC50 (binned) (converted)
[7] = read-out: PKC-theta HTRF pIC50 (converted)

Compound	IC50 [1, 4] [µM]	IC50 [1, 5] [µM]	IC50 [2, 6] [µM]	IC50 [2, 7] [µM]	PKC-theta/PKC-delta selectivity [3]	PKC-theta/PKC-delta selectivity (binned) [3]
CC1(C)C(=O)Nc2nccc(-c3cccc(C4(CN)COC4)c3)c21 [Example 44]	> 1	10	0.1 to 0.316	0.2	4	F (a ratio of between 1 and 5)
CC1(C)C(=O)Nc2nccc(-c3cccc(C4CCNCC4)c3)c21 [Example 45]	> 1	3.98	0.1 to 0.316	0.2	2	F (a ratio of between 1 and 5)
CC1(O)C(=O)Nc2nccc(-c3cc(F)cc(N4CCNCC4)c3)c21 (stereo not drawn) [Example 46]	0.1 to 0.316	0.251	0.01 to 0.0316	0.0126	3	F (a ratio of between 1 and 5)
CC1(C)C(=O)Nc2nccc(-c3cccc(OC4CCNCC4)c3)c21 [Example 47]	> 1	2.51	0.1 to 0.316	0.316	2	F (a ratio of between 1 and 5)
CC1(C)C(=O)Nc2nccc(-c3cccc(N4CCNCC4)c3Cl)c21 [Example 48]	> 1	10	> 1	1.58	1	G (a ratio of 0 to 1)
CC1(Cc2ccccc2)C(=O)Nc2nccc(-c3cccc(N4CCNCC4)c3)c21 (stereo not drawn) [Example 49]	> 1	3.98	0.316 to 1	1	1	F (a ratio of between 1 and 5)
CC(C)[C@H]1CN(c2cccc(-c3ccnc4c3C(C)(C)C(=O)N4)c2)CCN1 [Example 50]	> 1	1	0.0316 to 0.1	0.0794	2	F (a ratio of between 1 and 5)
CC[C@H]1CN(c2cccc(-c3ccnc4c3C(C)(C)C(=O)N4)c2)CCN1 [Example 51]	> 1	1.26	0.0316 to 0.1	0.0794	3	F (a ratio of between 1 and 5)
C[C@H]1CN(c2cccc(-c3ccnc4c3C(C)(C)C(=O)N4)c2)CCN1 [Example 52]	> 1	1.58	0.1 to 0.316	0.126	2	F (a ratio of between 1 and 5)
CC1(C)C(=O)Nc2nccc(-c3cc(C#N)cc(N4CCNCC4)c3)c21 [Example 53]	> 1	1.58	0.1 to 0.316	0.251	3	F (a ratio of between 1 and 5)
C[C@@H]1CN(c2cccc(-c3ccnc4c3C(C)(C)C(=O)N4)c2)CCN1 [Example 54]	> 1	2	0.0316 to 0.1	0.1	3	F (a ratio of between 1 and 5)
CC1(O)C(=O)Nc2nccc(-c3cc(Cl)cc(N4CCNCC4)c3)c21 (stereo not drawn) [Example 55]	0.316 to 1	0.398	0.01 to 0.0316	0.01	9	E (a ratio of between 5 and 10)
CC1(O)C(=O)Nc2nccc(-c3cc(N4CCNCC4)cc(C(F)(F)F)c3)c21 (stereo not drawn) [Example 56]	0.316 to 1	0.794	0.01 to 0.0316	0.02	14	D (a ratio of between 10 and 20)
COC1(C)C(=O)Nc2nccc(-c3cc(F)cc(N4CCNCC4)c3)c21 (stereo not drawn) [Example 57]	0.316 to 1	0.631	0.0316 to 0.1	0.0501	6	E (a ratio of between 5 and 10)
C[C@H]1CNCCN1c1cc(F)cc(-c2ccnc3c2C(C)(O)C(=O)N3)c1 (stereo partly drawn) [Example 58]	0.316 to 1	0.316	0.01 to 0.0316	0.0126	7	E (a ratio of between 5 and 10)
C[C@@H]1CNCCN1c1cc(F)cc(-c2ccnc3c2C(C)(O)C(=O)N3)c1 (stereo partly drawn) [Example 59]	0.1 to 0.316	0.126	0.00316 to 0.01	0.00501	5	F (a ratio of between 1 and 5)
CC1(O)C(=O)Nc2nccc(-c3cc(N4CCNCC4)ccc3F)c21 (stereo not drawn) [Example 60]	> 1	1.58	0.1 to 0.316	0.126	4	F (a ratio of between 1 and 5)
Cc1cc(-c2ccnc3c2C(C)(C)C(=O)N3)cc(N2CCNCC2)c1 [Example 61]	0.316 to 1	0.794	0.0316 to 0.1	0.0501	6	E (a ratio of between 5 and 10)
CC1(C)C(=O)Nc2ncc(C#N)c(-c3cc(F)cc(N4CCNCC4)c3)c21 [Example 64]	> 1	5.01	0.316 to 1	0.501	2	F (a ratio of between 1 and 5)
CC1(C)C(=O)Nc2nccc(-c3cc(Cl)cc(N4CCNCC4)n3)c21 [Example 65]	0.1 to 0.316	0.2	0.001 to 0.00316	0.002	14	D (a ratio of between 10 and 20)
CC1(C)C(=O)Nc2nccc(-c3cc(C(F)(F)F)cc(N4CCNCC4)n3)c21 [Example 66]	0.0316 to 0.1	0.0794	0.00316 to 0.01	0.00501	13	D (a ratio of between 10 and 20)
CC1(C)C(=O)Nc2nccc(-c3cccc(N4CCNC(Cc5cccnc5)C4)c3)c21 (stereo not drawn) [Example 67]	> 1	1	0.0316 to 0.1	0.0501	3	F (a ratio of between 1 and 5)
O=c1[nH]c2nccc(-c3cc(C(F)(F)F)cc(N4CCNCC4)n3)c2[nH]1 [Example 68]	0.316 to 1	0.501	0.0316 to 0.1	0.0316	11	D (a ratio of between 10 and 20)
CC1(C)C(=O)Nc2ncc(Br)c(-c3cc(F)cc(N4CCNCC4)c3)c21 [Example 69]	0.316 to 1	0.398	0.0316 to 0.1	0.0398	1	F (a ratio of between 1 and 5)
